The target of one test is T1, HDAC1 (Homo sapiens, UniProt Q13547).
T1 construct: purchased Enzolifesciences BML-AK511
Kind of test: HDAC enzyme activity inhibition (in vitro), HDAC1 Fluorimetric Drug Discovery Assay Kit. It is filed as biochemical. The following applies: samples at 100, 1000 and 10000 nM; 37° C. 60 minutes; fluorescence Ex 390, Em 460; read-out: HDAC1 IC50. Put shortly: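 Each sample reacted with enzyme for 60 min at 37° C before a 30-min developer step at the same temperature. HDAC1 doses spanned 100 to 10000 nM. Fluorescent signal was read at Ex 390/Em 460.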

The target in a further test is T2, HDAC6 human recombinant (Homo sapiens, UniProt Q9UBN7).
T2 construct: purchased Calbiochem 382180
T2 sequence (Q9UBN7 1-1215): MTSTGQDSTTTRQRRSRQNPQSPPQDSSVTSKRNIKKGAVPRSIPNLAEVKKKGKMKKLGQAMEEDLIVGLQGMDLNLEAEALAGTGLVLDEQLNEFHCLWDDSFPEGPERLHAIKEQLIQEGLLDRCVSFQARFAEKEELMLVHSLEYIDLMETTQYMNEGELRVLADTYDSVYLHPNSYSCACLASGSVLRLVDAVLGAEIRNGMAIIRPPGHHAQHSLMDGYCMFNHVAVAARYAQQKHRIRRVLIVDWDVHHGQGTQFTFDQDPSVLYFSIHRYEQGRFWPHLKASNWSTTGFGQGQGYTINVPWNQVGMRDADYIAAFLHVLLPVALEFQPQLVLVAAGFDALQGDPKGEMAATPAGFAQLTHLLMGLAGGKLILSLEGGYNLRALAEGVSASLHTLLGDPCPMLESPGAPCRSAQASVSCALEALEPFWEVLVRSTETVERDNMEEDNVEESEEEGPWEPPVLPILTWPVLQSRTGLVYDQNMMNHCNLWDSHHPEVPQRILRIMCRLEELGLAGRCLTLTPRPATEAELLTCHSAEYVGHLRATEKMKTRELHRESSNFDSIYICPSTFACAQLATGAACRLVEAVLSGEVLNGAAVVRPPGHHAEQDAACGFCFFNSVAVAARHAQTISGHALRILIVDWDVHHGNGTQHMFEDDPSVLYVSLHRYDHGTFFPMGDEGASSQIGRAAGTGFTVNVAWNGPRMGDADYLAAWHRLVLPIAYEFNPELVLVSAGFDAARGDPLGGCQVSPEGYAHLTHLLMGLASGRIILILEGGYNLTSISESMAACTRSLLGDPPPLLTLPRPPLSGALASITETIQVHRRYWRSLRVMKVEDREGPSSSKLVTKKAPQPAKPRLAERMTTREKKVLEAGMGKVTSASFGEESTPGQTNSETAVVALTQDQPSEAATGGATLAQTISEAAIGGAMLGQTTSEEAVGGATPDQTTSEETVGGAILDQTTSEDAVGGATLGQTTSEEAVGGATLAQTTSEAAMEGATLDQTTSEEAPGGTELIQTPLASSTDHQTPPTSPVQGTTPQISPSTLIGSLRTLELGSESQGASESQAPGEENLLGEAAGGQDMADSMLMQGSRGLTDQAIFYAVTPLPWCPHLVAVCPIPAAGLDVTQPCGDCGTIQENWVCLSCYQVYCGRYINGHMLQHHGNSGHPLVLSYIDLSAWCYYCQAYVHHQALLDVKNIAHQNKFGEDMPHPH
Kind of test: HDAC enzyme activity inhibition (in vitro), HDAC6 assay. It is filed as biochemical. The following applies: samples at 0.1, 1, 10, 100 and 1000 nM; 37° C. 60 minutes; fluorescence Ex 390, Em 460; read-out: HDAC6 IC50. Summed up:
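Fluorescence (Ex 390, Em 460) read after a 37° C, 60 min enzyme reaction and a further 30 min developer step at 37° C. Uses recombinant human HDAC6; HDAC1 arm dosed at 100, 1000, 10000 nM.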

T1 sequence (Q13547 whole entry): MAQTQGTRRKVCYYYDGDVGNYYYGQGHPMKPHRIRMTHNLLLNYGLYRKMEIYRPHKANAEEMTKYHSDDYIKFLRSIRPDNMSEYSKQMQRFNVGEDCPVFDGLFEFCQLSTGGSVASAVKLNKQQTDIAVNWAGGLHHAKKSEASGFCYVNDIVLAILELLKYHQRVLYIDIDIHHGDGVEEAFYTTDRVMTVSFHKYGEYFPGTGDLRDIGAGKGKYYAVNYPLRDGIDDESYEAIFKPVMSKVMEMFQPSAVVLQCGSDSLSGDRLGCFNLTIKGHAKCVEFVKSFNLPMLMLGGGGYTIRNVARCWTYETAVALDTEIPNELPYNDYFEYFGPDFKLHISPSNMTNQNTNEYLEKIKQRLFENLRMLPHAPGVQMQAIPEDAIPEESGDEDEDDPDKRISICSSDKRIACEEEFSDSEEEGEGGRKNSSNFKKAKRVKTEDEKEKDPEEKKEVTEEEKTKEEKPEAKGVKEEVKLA

Take `CC(C)N1CCC(c2ccc3c(c2)oc(=O)n3Cc2ccc(-c3nnc(C(F)F)o3)cn2)CC1` [Compound 313, 3-((5-(5-(difluoromethyl)-1,3,4-oxadiazole-2-yl)pyridine-2-yl)methyl)-6-(1-isopropylpiperidine-4-yl)benzo[d]oxazole-2(3H)-one]: the half-maximal inhibitory concentration (IC50) on HDAC1 is over 10000 nM; at HDAC6 human recombinant, 165 nM.
As to `O=c1oc2cc(C3CCN(C4COC4)CC3)ccc2n1Cc1ccc(-c2nnc(C(F)F)o2)cn1` [Compound 314, 3-((5-(5-(difluoromethyl)-1,3,4-oxadiazole-2-yl)pyridine-2-yl)methyl)-6-(1-(oxetan-3-yl)piperidine-4-yl)benzo[d]oxazole-2(3H)-one], the values for the IC50 on HDAC1 and on HDAC6 human recombinant were over 10000 nM and 112 nM, respectively.
For the compound `O=c1oc2cc(C3CCN(C4CCC4)CC3)ccc2n1Cc1ccc(-c2nnc(C(F)F)o2)cn1` [Compound 315, 6-(1-cyclobutylpiperidine-4-yl)-3-((5-(5-(difluoromethyl)-1,3,4-oxadiazole-2-yl)pyridine-2-yl)methyl)benzo[d]oxazole-2(3H)-one], the IC50 was over 10000 nM on HDAC1 and 118 nM at HDAC6 human recombinant.
`CC(C)(C)OC(=O)N1CCN(c2cc3oc(=O)n(Cc4ccc(-c5nnc(C(F)F)o5)cn4)c3cc2F)CC1` [Compound 316, tert-butyl 4-(3-((5-(5-(difluoromethyl)-1,3,4-oxadiazole-2-yl)pyridine-2-yl)methyl)-5-fluoro-2-oxo-2,3-dihydrobenzo[d]oxazole-6-yl)piperazine-1-carboxylate]: the IC50 on HDAC1 is over 10000 nM; at HDAC6 human recombinant, 91 nM.
With `CN1CCN(c2cc3oc(=O)n(Cc4ccc(-c5nnc(C(F)F)o5)cn4)c3cc2F)CC1` [Compound 317, 3-((5-(5-(difluoromethyl)-1,3,4-oxadiazole-2-yl)pyridine-2-yl)methyl)-5-fluoro-6-(4-methylpiperazine-1-yl)benzo[d]oxazole-2(3H)-one], the IC50 is over 10000 nM at HDAC1 and 15 nM at HDAC6 human recombinant.
For the compound `O=c1oc2cc(N3CCN(C4COC4)CC3)c(F)cc2n1Cc1ccc(-c2nnc(C(F)F)o2)cn1` [Compound 318, 3-((5-(5-(difluoromethyl)-1,3,4-oxadiazole-2-yl)pyridine-2-yl)methyl)-5-fluoro-6-(4-(oxetan-3-yl)piperazine-1-yl)benzo[d]oxazole-2(3H)-one], the IC50 on HDAC1 is over 10000 nM; at HDAC6 human recombinant it was 56 nM.
Regarding `CN1CCN(c2cc3c(cc2F)n(Cc2ccc(-c4nnc(C(F)F)o4)cn2)c(=O)n3C2COC2)CC1` [Compound 319, 1-((5-(5-(difluoromethyl)-1,3,4-oxadiazole-2-yl)pyridine-2-yl)methyl)-6-fluoro-5-(4-methylpiperazine-1-yl)-3-(oxetan-3-yl)-1,3-dihydro-2H-benzo[d]imidazole-2-one], the values for the IC50 on HDAC1 and at HDAC6 human recombinant were over 10000 nM and 39 nM, respectively.
As to `O=c1n(Cc2ccc(-c3nnc(C(F)F)o3)cn2)c2cc(F)c(N3CCN(C4CCC4)CC3)cc2n1C1COC1` [Compound 320, 5-(4-cyclobutylpiperazine-1-yl)-1-((5-(5-(difluoromethyl)-1,3,4-oxadiazole-2-yl)pyridine-2-yl)methyl)-6-fluoro-3-(oxetan-3-yl)-1,3-dihydro-2H-benzo[d]imidazole-2-one], the IC50 on HDAC1 was over 10000 nM; on HDAC6 human recombinant it was 41 nM.
Consider `O=c1n(Cc2ccc(-c3nnc(C(F)F)o3)cn2)c2cc(F)c(N3CCN(C4COC4)CC3)cc2n1C1COC1` [Compound 321, 1-((5-(5-(difluoromethyl)-1,3,4-oxadiazole-2-yl)pyridine-2-yl)methyl)-6-fluoro-3-(oxetan-3-yl)-5-(4-(oxetan-3-yl)piperazine-1-yl)-1,3-dihydro-2H-benzo[d]imidazole-2-one], for which the 50% inhibitory concentration (IC50) on HDAC1 was over 10000 nM; on HDAC6 human recombinant it was 53 nM.
Take `O=c1n(Cc2ccc(-c3nnc(C(F)F)o3)cn2)c2cc(F)c(N3CCN(Cc4cccc5[nH]ccc45)CC3)cc2n1C1COC1` [Compound 322, 5-(4-((1H-indole-4-yl)methyl)piperazine-1-yl)-1-((5-(5-(difluoromethyl)-1,3,4-oxadiazole-2-yl)pyridine-2-yl)methyl)-6-fluoro-3-(oxetan-3-yl)-1,3-dihydro-2H-benzo[d]imidazole-2-one]: the IC50 at HDAC1 was over 10000 nM; at HDAC6 human recombinant it was 29 nM.
Take `O=c1n(Cc2ccc(-c3nnc(C(F)F)o3)cn2)c2cc(F)c(N3CCN(Cc4cn[nH]c4)CC3)cc2n1C1COC1` [Compound 323, 5-(4-((1H-pyrazole-4-yl)methyl)piperazine-1-yl)-1-((5-(5-(difluoromethyl)-1,3,4-oxadiazole-2-yl)pyridine-2-yl)methyl)-6-fluoro-3-(oxetan-3-yl)-1,3-dihydro-2H-benzo[d]imidazole-2-one]: the figures for the IC50 at HDAC1 and at HDAC6 human recombinant were over 10000 nM and 35 nM, respectively.
Turning to `O=c1n(Cc2ccc(-c3nnc(C(F)F)o3)cn2)c2cc(F)c(N3CCN(Cc4cccnc4)CC3)cc2n1C1COC1` [Compound 324, 1-((5-(5-(difluoromethyl)-1,3,4-oxadiazole-2-yl)pyridine-2-yl)methyl)-6-fluoro-3-(oxetan-3-yl)-5-(4-(pyridine-3-ylmethyl)piperazine-1-yl)-1,3-dihydro-2H-benzo[d]imidazole-2-one], the IC50 was over 10000 nM at HDAC1 and 42 nM at HDAC6 human recombinant.
For `O=c1n(Cc2ccc(-c3nnc(C(F)F)o3)cn2)c2cc(F)c(N3CCN(CC(F)(F)F)CC3)cc2n1C1COC1` [Compound 325], the results for the IC50 on HDAC1 and on HDAC6 human recombinant were over 10000 nM and 70 nM, respectively.
As for `CN(C)CCn1c(=O)n(Cc2ccc(-c3nnc(C(F)F)o3)cn2)c2cc(F)c(-c3cccnc3)cc21` [Compound 326, 1-((5-(5-(difluoromethyl)-1,3,4-oxadiazole-2-yl)pyridine-2-yl)methyl)-3-(2-(dimethylamino)ethyl)-6-fluoro-5-(pyridine-3-yl)-1,3-dihydro-2H-benzo[d]imidazole-2-one], the figures for the IC50 on HDAC1 and at HDAC6 human recombinant were over 10000 nM and 160 nM, respectively.
In the same order, the values of `CN(C)CCn1c(=O)n(Cc2ccc(-c3nnc(C(F)F)o3)cn2)c2cc(F)c(-c3ccncc3)cc21` [Compound 327, 1-((5-(5-(difluoromethyl)-1,3,4-oxadiazole-2-yl)pyridine-2-yl)methyl)-3-(2-(dimethylamino)ethyl)-6-fluoro-5-(pyridine-4-yl)-1,3-dihydro-2H-benzo[d]imidazole-2-one] are over 10000 nM and 58 nM.
Taken in the same sequence, the figures for `CN1CCN(c2cc3c(cc2F)n(Cc2ccc(-c4nnc(C(F)F)o4)cn2)c(=O)n3-c2cccnc2)CC1` [Compound 328, 1-((5-(5-(difluoromethyl)-1,3,4-oxadiazole-2-yl)pyridine-2-yl)methyl)-6-fluoro-5-(4-methylpiperazine-1-yl)-3-(pyridine-3-yl)-1,3-dihydro-2H-benzo[d]imidazole-2-one] were over 10000 nM and 85 nM.
In the same order, the values of `O=c1n(Cc2ccc(-c3nnc(C(F)F)o3)cn2)c2cc(F)c(N3CCN(C4COC4)CC3)cc2n1-c1cccnc1` [Compound 329, 1-((5-(5-(difluoromethyl)-1,3,4-oxadiazole-2-yl)pyridine-2-yl)methyl)-6-fluoro-5-(4-(oxetan-3-yl)piperazine-1-yl)-3-(pyridine-3-yl)-1,3-dihydro-2H-benzo[d]imidazole-2-one] are over 10000 nM and 127 nM.
As for `Cn1c(=O)n(Cc2ccc(-c3nnc(C(F)F)o3)cn2)c2cc(F)c(-c3ccc(CN4CCOCC4)nc3)cc21` [Compound 330, 1-((5-(5-(difluoromethyl)-1,3,4-oxadiazole-2-yl)pyridine-2-yl)methyl)-6-fluoro-3-methy 1-5-(6-(morpholinomethyl)pyridine-3-yl)-1,3-dihydro-2H-benzo[d]imidazole-2-one], the IC50 at HDAC1 was over 10000 nM; at HDAC6 human recombinant, 22 nM.

Source of the values: patent publication US20230092890A1, “1, 3, 4-Oxadiazole derivative compounds as histone deacetylase 6 inhibitor, and the pharmaceutical composition comprising the same” (Chong Kun Dang Pharmaceutical Corp., priority 2019, published 2023).
